# Patent US11702469B2, “Recombinant EGFL7, EGFL7 antibodies, and uses thereof” (Ohio State Innovation Foundation, priority 2017, dated 2023)
# Assays:
# HES1 [1] = test: DLL4-Fc coated plate NOTCH activation (HES1 qRT-PCR), THP-1; assay type: cell-based, human
# Method: (§1) FIG. 24A-24G. EGFL7 prevents activation of NOTCH signaling in AML cells. (FIG. 24A) Overview of experiments using DLL4-FC and IgG-FC control coated plates to induce NOTCH activation. (FIG. 24B) THP-1 cells were pre-treated with 10 μM γ-secretase inhibitor (AVA), 100 μg/ml anti-EGFL7 antibody or 0.25 μM rEGFL7 for 30 min, then transferred to IgG-Fc or DLL4-Fc coated plates. After 4 h of incubation total RNA from THP-1 cells was extracted for qRT-PCR analysis of HES1 with β-ACTIN as internal control. ^###P<0.001 DLL4-FC vs IgG-FC; ***P<0.001 DLL4+AVA, DLL4+rEGFL7, and DLL4+anti-EGFL7 vs DLL4-FC. (FIG. 24C) Primary AML blasts were pretreated with 10 μM γ-secretase inhibitor (AVA), 100 μg/ml anti-EGFL7 antibody or 0.25 μM rEGFL7 for 30 min, then transferred to IgG-Fc or DLL4-Fc coated plates. After 4 h of incubation, total RNA was extracted for RT-PCR analysis of HES1 mRNA with β-ACTIN as internal control. ^###P<0.001 DLL4-Fc vs IgG-Fc; *P<0.05, ***P<0.001 vs DLL4 Fc. THP-1 cells were treated with the indicated concentration of anti-EGFL7 (@E7) then assessed for apoptosis using (FIG. 24D) AnnexinV+ staining and FACS; *P<0.05 (FIG. 24E) Immuno-blotting for PARP1 and Casp3 cleavage. (FIG. 24F) Cell differentiation was assessed by CD11B and CD14 staining 96-hours post anti-EGFL7 treatments; *P<0.05. (FIG. 24G) To determine whether activation of NOTCH by DLL4-Fc could be accentuated by anti-EGFL7 treatment, THP-1 cells were first treated with anti-EGFL7 (100 μg/ml) and then cultured on DLL4-FC or IgG-Fc coated plates and then assessed for apoptosis using AnnexinV+ staining and FACS. *P<0.05 DLL4-Fc and anti-EGFL7; vs DLL4-FC+anti-EGFL7.
# Total RNA was extracted using Trizol reagent (Invitrogen, Carlsbad, Calif., USA). cDNA was synthesized using SuperScript III reagents (Invitrogen) according to the manufacturer's instruction. Quantitative Real-Time RT-PCR was performed using commercially available TaqMan Gene Expression Assay primers and the 7900HT Fast Real-Time PCR System (Applied Biosystems, Foster City, Calif., USA). […]
# HES1 [2] = test: OP9-DLL1 co-culture NOTCH activation (HES1 RT-PCR), THP-1; assay type: cell-based, human; conditions: THP-1 co-cultured with OP9-DLL1
# From the text: FIG. 27. EGFL7 prevents NOTCH ligand inactivation of Notch signaling in AML cells. (A) Overview of experiments involving co-culture of THP-1 cells with mouse stromal cells overexpressing DLL1. (B) Total RNA was extracted for RT-PCR analysis of HES1 with β-ACTIN as internal control. ^###P<0.001 OP9-DLL1 vs OP9; *P<0.05, **P<0.01 vs untreated control.
# Total RNA was extracted using Trizol reagent (Invitrogen, Carlsbad, Calif., USA). cDNA was synthesized using SuperScript III reagents (Invitrogen) according to the manufacturer's instruction. Quantitative Real-Time RT-PCR was performed using commercially available TaqMan Gene Expression Assay primers and the 7900HT Fast Real-Time PCR System (Applied Biosystems, Foster City, Calif., USA). The expression levels of target genes were normalized to β-ACTIN. Relative expression was calculated by using the comparative 2^−ΔΔct method.
# It was next determined whether EGFL7 is inhibiting NOTCH signaling in AML cells by competing with canonical NOTCH ligand binding. To perform these experiments, THP-1 cells were cultured on DLL4-Fc and IgG-Fc (control) coated plates to activate NOTCH signaling. The effect of rEGFL7 and anti-EGFL7 on this DLL4-Fc NOTCH activation was also tested (FIG. 24A). […] For these experiments, co-culture was performed of THP-1 cells with stromal cells (OP9) overexpressing membrane bound DLL1 (OP9-DLL1)^25 (FIG. 27A).
# NOTCH signaling = test: Gamma-secretase inhibitor on Parsatuzumab induced NOTCH activation, primary blasts; assay type: cell-based, human
# Method: as §1, with “(FIG. 24C) Primary AML blasts were pretreated with 10 μM γ-secretase inhibitor (AVA), 100 μg/ml anti-EGFL7 antibody or 0.25 μM rEGFL7 for 30 min, then transferred to IgG-Fc or DLL4-Fc coated plates. After 4 h of incubation, total RNA was extracted for RT-PCR analysis of HES1 mRNA with β-ACTIN as internal control. ^###P<0.001 DLL4-Fc vs IgG-Fc; *P<0.05, ***P<0.001 vs DLL4 Fc.” left out, “DLL4-FC+anti-EGFL7. […]” for “DLL4-FC+anti-EGFL7.”
# acute myeloid leukemia = conditions: PSC-833 arm with cytarabine, daunorubicin and etoposide; cited from earlier work
# FLT3-ITD AML = conditions: phase I/II study in AML; cited from earlier work
compound,measurement,setting,value
"NC(=O)[C@@H](CCC(F)(F)F)N(Cc1ccc(-c2ncon2)cc1F)S(=O)(=O)c1ccc(Cl)cc1 [AVA, Avagacestat]",DLL4-Fc-mediated NOTCH activation (HES1),"HES1 [1]; pre-treated 30 min: 10 μM AVA, 100 μg/ml anti-EGFL7 or 0.25 μM rEGFL7, then 4 h, vs DLL4-FC",significantly reduced
same,DLL1-mediated NOTCH activation (HES1),HES1 [2],significantly reduced
same,Parsatuzumab induced NOTCH activation,NOTCH signaling,blocked
"C/C=C/C[C@@H](C)C(=O)[C@H]1C(=O)N[C@@H](C(C)C)C(=O)N(C)CC(=O)N(C)[C@@H](CC(C)C)C(=O)N[C@@H](C(C)C)C(=O)N(C)[C@@H](CC(C)C)C(=O)N[C@@H](C)C(=O)N[C@H](C)C(=O)N(C)[C@@H](CC(C)C)C(=O)N(C)[C@@H](CC(C)C)C(=O)N(C)[C@@H](C(C)C)C(=O)N1C [PSC-833, valspodar]",early deaths,acute myeloid leukemia,excessive early deaths
"DLL4-Fc: Recombinant human DLL4 (Fc chimera, ab108557), canonical NOTCH ligand",NOTCH activation assessed by HES1 expression,"HES1 [1]; DLL4-Fc vs IgG-Fc coated plates, 4 h",increases in NOTCH activation
CCc1nc(C(N)=O)c(Nc2ccc(N3CCC(N4CCN(C)CC4)CC3)c(OC)c2)nc1NC1CCOCC1 [Gilteritinib],tolerability and safety,FLT3-ITD AML,"tolerable, safe"
